Tested on: 217524-143-R1-J4-PDC spheroids with HUVEC/MSC, viability
Test: Anticancer human tumor 217524-143-R1-J4-PDC patient-derived pancreatic carcinoma cell line growth inhibition [CLK]
Conditions: for IC50: curve of first compound; for viability, T/C: stronger effect = lower value
In short: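 Multi-cell-type spheroids combined patient-derived tumor cells with HUVEC endothelial cells and human mesenchymal stem cells. Paired agents were dosed in half-log steps down from about clinical Cmax, or from 10 microM where Cmax was unknown.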

[1] = second compound 0.0316 µM, first compound 0.0316 µM
[2] = second compound 0.0316 µM, first compound 0.1 µM
[3] = second compound 0.0316 µM, first compound 0.316 µM
[4] = second compound 0.0316 µM, first compound 1 µM
[5] = second compound 0.0316 µM, first compound 3.16 µM
[6] = second compound 0.0316 µM, first compound 10 µM
[7] = second compound 0.1 µM, first compound 0.0316 µM
[8] = second compound 0.1 µM, first compound 0.1 µM
[9] = second compound 0.1 µM, first compound 0.316 µM
[10] = second compound 0.1 µM, first compound 1 µM
[11] = second compound 0.1 µM, first compound 3.16 µM
[12] = second compound 0.1 µM, first compound 10 µM
[13] = second compound 0.316 µM, first compound 0.0316 µM
[14] = second compound 0.316 µM, first compound 0.1 µM
[15] = second compound 0.316 µM, first compound 0.316 µM
[16] = second compound 0.316 µM, first compound 1 µM
[17] = second compound 0.316 µM, first compound 3.16 µM
[18] = second compound 0.316 µM, first compound 10 µM
[19] = second compound 1 µM, first compound 0.0316 µM
[20] = second compound 1 µM, first compound 0.1 µM
[21] = second compound 1 µM, first compound 0.316 µM
[22] = second compound 1 µM, first compound 1 µM
[23] = second compound 1 µM, first compound 3.16 µM
[24] = second compound 1 µM, first compound 10 µM
[25] = second compound 3.16 µM, first compound 0.0316 µM
[26] = second compound 3.16 µM, first compound 0.1 µM
[27] = second compound 3.16 µM, first compound 0.316 µM
[28] = second compound 3.16 µM, first compound 1 µM
[29] = second compound 3.16 µM, first compound 3.16 µM
[30] = second compound 3.16 µM, first compound 10 µM
[31] = second compound 10 µM, first compound 0.0316 µM
[32] = second compound 10 µM, first compound 0.1 µM
[33] = second compound 10 µM, first compound 0.316 µM
[34] = second compound 10 µM, first compound 1 µM
[35] = second compound 10 µM, first compound 3.16 µM
[36] = second compound 10 µM, first compound 10 µM
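Further: spheroids exposed to agents for seven days before reading.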
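Wherever viability, T/C is given: 100% = DMSO vehicle control viability.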

**Q.** Which results are given for `CC(CO)NC(=O)c1cc(-c2ccc(Cl)cc2)nn(-c2cnn(C)c2)c1=O` (stereo unspecified) + CNC(=O)c1ccc(Nc2nc(OC3CCCC3)c3c(-c4ccc5nc(C)oc5c4)c[nH]c3n2)c(OC)c1?
**A.** IC50 (second compound 0.0316 µM): > 10000 nM; IC50 (second compound 0.1 µM): < 31.6 nM; IC50 (second compound 0.316 µM): < 31.6 nM; IC50 (second compound 1 µM): < 31.6 nM; IC50 (second compound 3.16 µM): < 31.6 nM; IC50 (second compound 10 µM): < 31.6 nM; viability, T/C [1]: 101%; viability, T/C [2]: 81.4%; viability, T/C [3]: 86.5%; viability, T/C [4]: 105%; viability, T/C [5]: 106%; viability, T/C [6]: 84.2%; viability, T/C [7]: 44.8%; viability, T/C [8]: 42.2%; viability, T/C [9]: 46.1%; viability, T/C [10]: 51.3%; viability, T/C [11]: 47.4%; viability, T/C [12]: 43.5%; viability, T/C [13]: 48.2%; viability, T/C [14]: 39.8%; viability, T/C [15]: 44.8%; viability, T/C [16]: 40.1%; viability, T/C [17]: 38.9%; viability, T/C [18]: 38.7%; viability, T/C [19]: 26.2%; viability, T/C [20]: 30.1%; viability, T/C [21]: 26.2%; viability, T/C [22]: 32.7%; viability, T/C [23]: 28.3%; viability, T/C [24]: 25%; viability, T/C [25]: 33.1%; viability, T/C [26]: 26.2%; viability, T/C [27]: 32.4%; viability, T/C [28]: 31.8%; viability, T/C [29]: 28.8%; viability, T/C [30]: 20.9%; viability, T/C [31]: 31.3%; viability, T/C [32]: 25.7%; viability, T/C [33]: 24.1%; viability, T/C [34]: 24.4%; viability, T/C [35]: 24.7%; viability, T/C [36]: 20.6%

**Q.** What does the source list for `CC(Nc1ccc2c(c1)OCCn1cc(N3C(=O)OCC3C(F)F)nc1-2)C(N)=O` (stereo unspecified) + CNC(=O)c1ccc(Nc2nc(OC3CCCC3)c3c(-c4ccc5nc(C)oc5c4)c[nH]c3n2)c(OC)c1?
**A.** IC50 (second compound 0.0316 µM): 55.8 nM; IC50 (second compound 0.1 µM): < 31.6 nM; IC50 (second compound 0.316 µM): < 31.6 nM; IC50 (second compound 1 µM): < 31.6 nM; IC50 (second compound 3.16 µM): < 31.6 nM; IC50 (second compound 10 µM): < 31.6 nM; viability, T/C [1]: 63.3%; viability, T/C [2]: 36.5%; viability, T/C [3]: 15.6%; viability, T/C [4]: 8.68%; viability, T/C [5]: 6.12%; viability, T/C [6]: 4.83%; viability, T/C [7]: 31.9%; viability, T/C [8]: 20.7%; viability, T/C [9]: 11.4%; viability, T/C [10]: 7.98%; viability, T/C [11]: 5.53%; viability, T/C [12]: 4.2%; viability, T/C [13]: 24.7%; viability, T/C [14]: 13.8%; viability, T/C [15]: 7.07%; viability, T/C [16]: 4.72%; viability, T/C [17]: 3.59%; viability, T/C [18]: 3.01%; viability, T/C [19]: 16.8%; viability, T/C [20]: 10.2%; viability, T/C [21]: 5.1%; viability, T/C [22]: 3.22%; viability, T/C [23]: 3.05%; viability, T/C [24]: 2.02%; viability, T/C [25]: 17.7%; viability, T/C [26]: 9.35%; viability, T/C [27]: 4.79%; viability, T/C [28]: 3.52%; viability, T/C [29]: 2.61%; viability, T/C [30]: 2.12%; viability, T/C [31]: 18.6%; viability, T/C [32]: 10.6%; viability, T/C [33]: 6.17%; viability, T/C [34]: 2.83%; viability, T/C [35]: 3.46%; viability, T/C [36]: 2.14%

**Q.** What does the source list for `COc1c(OCCCN2CCOCC2)ccc2c3n(c(=NC(=O)c4cnc(N)nc4)nc12)CCN3` + CNC(=O)c1ccc(Nc2nc(OC3CCCC3)c3c(-c4ccc5nc(C)oc5c4)c[nH]c3n2)c(OC)c1?
**A.** IC50 (second compound 0.0316 µM): 6.97 nM; IC50 (second compound 0.1 µM): < 3.16 nM; IC50 (second compound 0.316 µM): < 3.16 nM; IC50 (second compound 1 µM): < 3.16 nM; IC50 (second compound 3.16 µM): < 3.16 nM; IC50 (second compound 10 µM): < 3.16 nM; viability, T/C (second compound 0.0316 µM, first compound 0.00316 µM): 74.9%; viability, T/C (second compound 0.0316 µM, first compound 0.01 µM): 38.7%; viability, T/C [1]: 10.4%; viability, T/C [2]: 4.29%; viability, T/C [3]: 2.9%; viability, T/C [4]: 2.31%; viability, T/C (second compound 0.1 µM, first compound 0.00316 µM): 36.7%; viability, T/C (second compound 0.1 µM, first compound 0.01 µM): 21.8%; viability, T/C [7]: 9.86%; viability, T/C [8]: 3.54%; viability, T/C [9]: 3.16%; viability, T/C [10]: 2.09%; viability, T/C (second compound 0.316 µM, first compound 0.00316 µM): 22.1%; viability, T/C (second compound 0.316 µM, first compound 0.01 µM): 14.2%; viability, T/C [13]: 7.78%; viability, T/C [14]: 3.17%; viability, T/C [15]: 2.58%; viability, T/C [16]: 2.49%; viability, T/C (second compound 1 µM, first compound 0.00316 µM): 19.9%; viability, T/C (second compound 1 µM, first compound 0.01 µM): 10.9%; viability, T/C [19]: 4.57%; viability, T/C [20]: 3.24%; viability, T/C [21]: 1.78%; viability, T/C [22]: 1.77%; viability, T/C (second compound 3.16 µM, first compound 0.00316 µM): 21%; viability, T/C (second compound 3.16 µM, first compound 0.01 µM): 11.8%; viability, T/C [25]: 5.14%; viability, T/C [26]: 2.24%; viability, T/C [27]: 1.69%; viability, T/C [28]: 1.26%; viability, T/C (second compound 10 µM, first compound 0.00316 µM): 16.7%; viability, T/C (second compound 10 µM, first compound 0.01 µM): 9.36%; viability, T/C [31]: 5%; viability, T/C [32]: 2.58%; viability, T/C [33]: 1.86%; viability, T/C [34]: 1.37%

— PubChem BioAssay AID2060624 (Molecular Pharmacology Branch, DTP, NCI, 2025)
